From US9963442B2, “Pyridones as herbicides” (E I DU PONT DE NEMOURS AND COMPANY, priority 2014, dated 2018)

Key:
Experiment in all cases: Test C postemergence
Type in all cases: in vivo
Settings in all cases: scale 0 to 100, 0 is no effect, 100 is complete control
[1] = tested on: winter wheat (Triticum aestivum)
Outline: (§1)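 Pre- and postemergence greenhouse applications of test chemicals in non-phytotoxic solvent with surfactant; preemergence on seeds in loam/sand, postemergence on plants 2–18 cm (1- to 4-leaf stage) in peat-based medium. Visual rating versus untreated controls after 13–15 days, scale 0 (no effect) to 100 (complete control).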

[2] = tested on: velvetleaf (Abutilon theophrasti)
Outline: as §1

kochia (Kochia scoparia) = tested on: kochia (Kochia scoparia)
Outline: as §1

corn (Zea mays) = tested on: corn (Zea mays)
Outline: as §1

wild oat (Avena fatua) = tested on: wild oat (Avena fatua)
Outline: as §1

[3] = tested on: morningglory (Ipomoea coccinea)
Outline: as §1

[4] = tested on: lambsquarters (Chenopodium album)
Outline: as §1

[5] = tested on: giant foxtail (Setaria faberii)
Outline: as §1

[6] = tested on: galium (catchweed bedstraw, Galium aparine)
Outline: as §1

[7] = tested on: oilseed rape (Brassica napus)
Outline: as §1

[8] = tested on: chickweed (common chickweed, Stellaria media)
Outline: as §1

[9] = tested on: blackgrass (Alopecurus myosuroides)
Outline: as §1

[10] = tested on: large (Lg) crabgrass (Digitaria sanguinalis)
Outline: as §1

[11] = tested on: pigweed (Amaranthus retroflexus)
Outline: as §1

[12] = tested on: Italian ryegrass (Lolium multiflorum)
Outline: as §1

[13] = tested on: yellow nutsedge (Cyperus esculentus)
Outline: as §1

soybean (Glycine max) = tested on: soybean (Glycine max)
Outline: as §1

[14] = tested on: waterhemp (common waterhemp, Amaranthus rudis)
Outline: as §1

[15] = tested on: johnsongrass (Sorghum halepense)
Outline: as §1

`O=c1cccc(Oc2ncc(Cl)cn2)n1-c1ccc(C(F)(F)F)cc1` [Compound 10] was tested. Which “Plant response rating, Wheat” value ([1]; 16 g ai/ha) did it give?
Its value is 0.

What about the “Plant response rating, Wheat” value ([1]; 31 g ai/ha) of the same molecule?
The value was 5.

What about the “Plant response rating, Wheat” value ([1]; 62 g ai/ha) of the same molecule?
Its value is 10.

And the “Plant response rating, Wheat” value ([1]; 125 g ai/ha)?
The value was 10.

What about the “Plant response rating, Velvetleaf” value ([2]; 16 g ai/ha) of the same molecule?
The value was 15.

What about the “Plant response rating, Velvetleaf” value ([2]; 31 g ai/ha) of the same molecule?
Its value is 35.

And the “Plant response rating, Velvetleaf” value ([2]; 62 g ai/ha)?
Its value is 60.

What about the “Plant response rating, Velvetleaf” value ([2]; 125 g ai/ha) of the same molecule?
The value was 65.

And the “Plant response rating, Kochia” value (kochia (Kochia scoparia); 16 g ai/ha)?
The value was 85.

And the “Plant response rating, Kochia” value (kochia (Kochia scoparia); 31 g ai/ha)?
Its value is 90.

And the “Plant response rating, Kochia” value (kochia (Kochia scoparia); 62 g ai/ha)?
Its value is 90.

What about the “Plant response rating, Kochia” value (kochia (Kochia scoparia); 125 g ai/ha) of the same molecule?
Its value is 95.

What about the “Plant response rating, Corn” value (corn (Zea mays); 16 g ai/ha) of the same molecule?
Its value is 20.

And the “Plant response rating, Corn” value (corn (Zea mays); 31 g ai/ha)?
Its value is 15.

What about the “Plant response rating, Corn” value (corn (Zea mays); 62 g ai/ha) of the same molecule?
Its value is 25.

And the “Plant response rating, Corn” value (corn (Zea mays); 125 g ai/ha)?
The value was 25.

What about the “Plant response rating, Oat, Wild” value (wild oat (Avena fatua); 16 g ai/ha) of the same molecule?
The value was 0.

What about the “Plant response rating, Oat, Wild” value (wild oat (Avena fatua); 31 g ai/ha) of the same molecule?
The value was 5.

What about the “Plant response rating, Oat, Wild” value (wild oat (Avena fatua); 62 g ai/ha) of the same molecule?
The value was 15.

What about the “Plant response rating, Oat, Wild” value (wild oat (Avena fatua); 125 g ai/ha) of the same molecule?
Its value is 25.

What about the “Plant response rating, Morningglory” value ([3]; 16 g ai/ha) of the same molecule?
Its value is 50.

And the “Plant response rating, Morningglory” value ([3]; 31 g ai/ha)?
Its value is 55.

What about the “Plant response rating, Morningglory” value ([3]; 62 g ai/ha) of the same molecule?
The value was 70.

And the “Plant response rating, Morningglory” value ([3]; 125 g ai/ha)?
Its value is 75.

What about the “Plant response rating, Lambsquarters” value ([4]; 16 g ai/ha) of the same molecule?
The value was 65.

And the “Plant response rating, Lambsquarters” value ([4]; 31 g ai/ha)?
The value was 75.

And the “Plant response rating, Lambsquarters” value ([4]; 62 g ai/ha)?
The value was 75.

What about the “Plant response rating, Lambsquarters” value ([4]; 125 g ai/ha) of the same molecule?
The value was 90.

What about the “Plant response rating, Foxtail, Giant” value ([5]; 16 g ai/ha) of the same molecule?
Its value is 10.

What about the “Plant response rating, Foxtail, Giant” value ([5]; 31 g ai/ha) of the same molecule?
Its value is 15.

What about the “Plant response rating, Foxtail, Giant” value ([5]; 62 g ai/ha) of the same molecule?
Its value is 10.

What about the “Plant response rating, Foxtail, Giant” value ([5]; 125 g ai/ha) of the same molecule?
Its value is 20.

What about the “Plant response rating, Galium” value ([6]; 16 g ai/ha) of the same molecule?
Its value is 45.

And the “Plant response rating, Galium” value ([6]; 31 g ai/ha)?
The value was 50.

And the “Plant response rating, Galium” value ([6]; 62 g ai/ha)?
Its value is 75.

And the “Plant response rating, Galium” value ([6]; 125 g ai/ha)?
Its value is 80.

And the “Plant response rating, Oilseed Rape” value ([7]; 16 g ai/ha)?
Its value is 5.

And the “Plant response rating, Oilseed Rape” value ([7]; 31 g ai/ha)?
The value was 25.

What about the “Plant response rating, Oilseed Rape” value ([7]; 62 g ai/ha) of the same molecule?
Its value is 80.

What about the “Plant response rating, Oilseed Rape” value ([7]; 125 g ai/ha) of the same molecule?
Its value is 80.

And the “Plant response rating, Chickweed” value ([8]; 16 g ai/ha)?
The value was 70.

What about the “Plant response rating, Chickweed” value ([8]; 31 g ai/ha) of the same molecule?
The value was 30.

What about the “Plant response rating, Chickweed” value ([8]; 62 g ai/ha) of the same molecule?
The value was 70.

What about the “Plant response rating, Chickweed” value ([8]; 125 g ai/ha) of the same molecule?
The value was 80.

And the “Plant response rating, Blackgrass” value ([9]; 16 g ai/ha)?
Its value is 10.

And the “Plant response rating, Blackgrass” value ([9]; 31 g ai/ha)?
Its value is 10.

What about the “Plant response rating, Blackgrass” value ([9]; 62 g ai/ha) of the same molecule?
Its value is 30.

And the “Plant response rating, Blackgrass” value ([9]; 125 g ai/ha)?
The value was 25.

What about the “Plant response rating, Crabgrass, Large” value ([10]; 16 g ai/ha) of the same molecule?
Its value is 25.

And the “Plant response rating, Crabgrass, Large” value ([10]; 31 g ai/ha)?
Its value is 35.

And the “Plant response rating, Crabgrass, Large” value ([10]; 62 g ai/ha)?
Its value is 60.

What about the “Plant response rating, Crabgrass, Large” value ([10]; 125 g ai/ha) of the same molecule?
Its value is 80.

And the “Plant response rating, Pigweed” value ([11]; 16 g ai/ha)?
The value was 70.

And the “Plant response rating, Pigweed” value ([11]; 31 g ai/ha)?
The value was 90.

What about the “Plant response rating, Pigweed” value ([11]; 62 g ai/ha) of the same molecule?
The value was 80.

What about the “Plant response rating, Pigweed” value ([11]; 125 g ai/ha) of the same molecule?
The value was 90.

And the “Plant response rating, Ryegrass, Italian” value ([12]; 16 g ai/ha)?
The value was 5.

What about the “Plant response rating, Ryegrass, Italian” value ([12]; 31 g ai/ha) of the same molecule?
The value was 5.

And the “Plant response rating, Ryegrass, Italian” value ([12]; 62 g ai/ha)?
Its value is 10.

What about the “Plant response rating, Ryegrass, Italian” value ([12]; 125 g ai/ha) of the same molecule?
Its value is 20.

And the “Plant response rating, Nutsedge, Yellow” value ([13]; 16 g ai/ha)?
Its value is 5.

What about the “Plant response rating, Nutsedge, Yellow” value ([13]; 31 g ai/ha) of the same molecule?
The value was 10.

What about the “Plant response rating, Nutsedge, Yellow” value ([13]; 62 g ai/ha) of the same molecule?
The value was 15.

And the “Plant response rating, Nutsedge, Yellow” value ([13]; 125 g ai/ha)?
Its value is 20.

What about the “Plant response rating, Soybean” value (soybean (Glycine max); 16 g ai/ha) of the same molecule?
The value was 40.

What about the “Plant response rating, Soybean” value (soybean (Glycine max); 31 g ai/ha) of the same molecule?
The value was 40.

And the “Plant response rating, Soybean” value (soybean (Glycine max); 62 g ai/ha)?
The value was 65.

And the “Plant response rating, Soybean” value (soybean (Glycine max); 125 g ai/ha)?
The value was 55.

And the “Plant response rating, Waterhemp” value ([14]; 16 g ai/ha)?
Its value is 75.

And the “Plant response rating, Waterhemp” value ([14]; 31 g ai/ha)?
The value was 80.

And the “Plant response rating, Waterhemp” value ([14]; 62 g ai/ha)?
Its value is 98.

What about the “Plant response rating, Waterhemp” value ([14]; 125 g ai/ha) of the same molecule?
The value was 98.

What about the “Plant response rating, Johnsongrass” value ([15]; 16 g ai/ha) of the same molecule?
Its value is 5.

What about the “Plant response rating, Johnsongrass” value ([15]; 31 g ai/ha) of the same molecule?
Its value is 10.

And the “Plant response rating, Johnsongrass” value ([15]; 62 g ai/ha)?
The value was 10.

And the “Plant response rating, Johnsongrass” value ([15]; 125 g ai/ha)?
The value was 25.
